Results published in paper PMC6832352, “Synthesis and Glycosidase Inhibition of Broussonetine M and Its Analogues” (Molecules, 2019).

Experiments:
Format in all cases: biochemical
α-Glucosidase [1] = biological target: T1, α-Glucosidase (Saccharomyces cerevisiae, UniProt P53341); assay: glycosidase inhibition assay, yeast α-glucosidase; details: for IC50: α-Glucosidase, Yeast
T1 construct: purchased Sigma-Aldrich Chemical Co
Protocol: (§1) With rat intestinal maltase as an exception, other enzymes were purchased from Sigma-Aldrich Chemical Co. (St. Louis, Mo. USA). Brush border membranes prepared from rat small intestine according to the method of Kessler et al. were assayed at pH 6.8 for rat intestinal maltase using maltose. The released D-glucose was determined colorimetrically using the Glucose CII-test Wako (Wako Pure Chemical Ind.; Osaka, Japan). Other glycosidase activities were determined using an appropriate p-nitrophenyl glycoside as substrate in a buffer solution at the optimal pH value of each enzyme. The reaction was stopped by adding 400 mM Na2CO3. The released p-nitrophenol was measured spectrometrically at 400 nm.

α-Galactosidase = biological target: T2, α-Galactosidase (Coffea arabica, UniProt Q42656); assay: glycosidase inhibition assay, coffee beans α-galactosidase; details: for IC50: α-Galactosidase, Coffee beans
T2 construct: purchased Sigma-Aldrich Chemical Co
T2 sequence (Q42656 16-378): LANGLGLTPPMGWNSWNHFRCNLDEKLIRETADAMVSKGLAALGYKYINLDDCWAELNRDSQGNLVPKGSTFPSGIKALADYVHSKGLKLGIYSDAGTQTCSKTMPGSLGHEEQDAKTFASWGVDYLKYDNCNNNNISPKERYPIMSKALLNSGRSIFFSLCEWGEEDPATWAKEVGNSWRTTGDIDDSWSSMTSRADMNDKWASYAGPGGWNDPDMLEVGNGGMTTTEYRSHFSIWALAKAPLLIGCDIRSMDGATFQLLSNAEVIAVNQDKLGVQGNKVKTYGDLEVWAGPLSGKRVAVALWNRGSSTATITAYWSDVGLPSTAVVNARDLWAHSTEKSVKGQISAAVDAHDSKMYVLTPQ
Protocol: as §1

β-Glucosidase = assay: glycosidase inhibition assay, almond β-glucosidase; details: for inhibition %: at 100 μM
Protocol: as §1

α-L-Rhamnosidase = biological target: T3, α-L-Rhamnosidase (Penicillium decumbens, UniProt S7ZS15); assay: glycosidase inhibition assay, P. decumbens α-L-rhamnosidase
T3 sequence (S7ZS15 1-894): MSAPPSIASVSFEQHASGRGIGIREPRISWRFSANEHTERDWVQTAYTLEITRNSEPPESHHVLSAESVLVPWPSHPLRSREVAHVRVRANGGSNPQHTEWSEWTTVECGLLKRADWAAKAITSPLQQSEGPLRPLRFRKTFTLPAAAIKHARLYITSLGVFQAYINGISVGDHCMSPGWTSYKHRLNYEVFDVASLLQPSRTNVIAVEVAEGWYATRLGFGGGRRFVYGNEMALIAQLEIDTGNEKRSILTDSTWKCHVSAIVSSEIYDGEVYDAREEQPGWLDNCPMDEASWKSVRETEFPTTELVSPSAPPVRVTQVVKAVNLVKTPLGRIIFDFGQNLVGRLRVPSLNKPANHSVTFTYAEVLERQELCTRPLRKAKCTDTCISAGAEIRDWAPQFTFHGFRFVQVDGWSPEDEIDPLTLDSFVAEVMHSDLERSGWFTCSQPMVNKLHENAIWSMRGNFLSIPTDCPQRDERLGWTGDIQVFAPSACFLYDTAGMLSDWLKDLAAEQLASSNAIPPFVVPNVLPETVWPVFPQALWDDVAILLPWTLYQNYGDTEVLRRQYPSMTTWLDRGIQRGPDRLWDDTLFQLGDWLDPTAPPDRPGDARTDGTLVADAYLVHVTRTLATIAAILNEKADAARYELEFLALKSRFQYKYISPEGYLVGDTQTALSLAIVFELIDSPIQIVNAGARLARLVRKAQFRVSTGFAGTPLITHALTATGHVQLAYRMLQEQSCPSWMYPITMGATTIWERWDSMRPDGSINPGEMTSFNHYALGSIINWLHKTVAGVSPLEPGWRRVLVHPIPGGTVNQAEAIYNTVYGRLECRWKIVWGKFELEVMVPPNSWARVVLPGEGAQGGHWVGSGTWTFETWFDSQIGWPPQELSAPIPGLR
Protocol: as §1

α-L-Fucosidase = biological target: T4, α-L-Fucosidase (Bos taurus, UniProt Q2KIM0); assay: glycosidase inhibition assay, bovine kidney α-L-fucosidase
T4 construct: purchased Sigma-Aldrich Chemical Co; host or cells: bovine kidney
T4 sequence (Q2KIM0 23-468): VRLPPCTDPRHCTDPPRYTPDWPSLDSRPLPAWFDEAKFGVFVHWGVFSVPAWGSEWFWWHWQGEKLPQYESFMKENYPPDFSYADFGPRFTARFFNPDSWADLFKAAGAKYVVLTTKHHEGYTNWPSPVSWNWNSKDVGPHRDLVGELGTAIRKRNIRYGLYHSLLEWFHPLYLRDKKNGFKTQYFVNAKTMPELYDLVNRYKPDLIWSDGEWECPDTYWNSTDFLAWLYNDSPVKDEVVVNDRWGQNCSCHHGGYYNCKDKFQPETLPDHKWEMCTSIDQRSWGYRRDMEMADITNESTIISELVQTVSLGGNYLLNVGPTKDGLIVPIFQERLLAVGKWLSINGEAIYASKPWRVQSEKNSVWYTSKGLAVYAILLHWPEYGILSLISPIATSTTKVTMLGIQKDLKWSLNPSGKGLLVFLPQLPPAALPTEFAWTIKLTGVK
Protocol: as §1

β-Mannosidase = assay: glycosidase inhibition assay, snail β-mannosidase; details: for inhibition %: at 100 μM
Protocol: as §1

Rat intestinal maltase = assay: rat intestinal maltase inhibition (brush border membranes, maltose); details: for inhibition %: at 100 μM
Protocol: as §1

β-Galactosidase = assay: glycosidase inhibition assay, bovine liver β-galactosidase
Protocol: as §1

β-Glucuronidase = biological target: T5, β-Glucuronidase (Escherichia coli, UniProt P05804); assay: glycosidase inhibition assay, E. coli β-glucuronidase
T5 construct: purchased Sigma-Aldrich Chemical Co
T5 sequence (P05804 whole entry): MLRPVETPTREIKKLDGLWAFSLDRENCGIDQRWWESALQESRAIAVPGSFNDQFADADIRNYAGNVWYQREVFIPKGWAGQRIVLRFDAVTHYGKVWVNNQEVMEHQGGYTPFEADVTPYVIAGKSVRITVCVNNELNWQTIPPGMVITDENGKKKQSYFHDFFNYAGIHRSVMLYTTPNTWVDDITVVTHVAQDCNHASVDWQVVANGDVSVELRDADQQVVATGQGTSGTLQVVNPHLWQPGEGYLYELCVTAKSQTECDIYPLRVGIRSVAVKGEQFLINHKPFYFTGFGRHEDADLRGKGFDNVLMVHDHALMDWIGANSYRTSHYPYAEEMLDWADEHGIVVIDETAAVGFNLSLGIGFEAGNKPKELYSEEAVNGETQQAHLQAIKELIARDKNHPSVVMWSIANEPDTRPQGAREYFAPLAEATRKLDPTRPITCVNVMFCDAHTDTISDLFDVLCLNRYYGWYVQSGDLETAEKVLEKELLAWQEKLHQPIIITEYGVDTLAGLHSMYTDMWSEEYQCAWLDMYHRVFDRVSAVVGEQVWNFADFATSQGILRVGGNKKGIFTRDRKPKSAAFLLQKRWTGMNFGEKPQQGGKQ
Protocol: as §1

Amyloglucosidase = biological target: T6, Amyloglucosidase (Aspergillus niger, UniProt P69328); assay: glycosidase inhibition assay, A. niger amyloglucosidase
T6 construct: purchased Sigma-Aldrich Chemical Co
T6 sequence (P69328 25-640): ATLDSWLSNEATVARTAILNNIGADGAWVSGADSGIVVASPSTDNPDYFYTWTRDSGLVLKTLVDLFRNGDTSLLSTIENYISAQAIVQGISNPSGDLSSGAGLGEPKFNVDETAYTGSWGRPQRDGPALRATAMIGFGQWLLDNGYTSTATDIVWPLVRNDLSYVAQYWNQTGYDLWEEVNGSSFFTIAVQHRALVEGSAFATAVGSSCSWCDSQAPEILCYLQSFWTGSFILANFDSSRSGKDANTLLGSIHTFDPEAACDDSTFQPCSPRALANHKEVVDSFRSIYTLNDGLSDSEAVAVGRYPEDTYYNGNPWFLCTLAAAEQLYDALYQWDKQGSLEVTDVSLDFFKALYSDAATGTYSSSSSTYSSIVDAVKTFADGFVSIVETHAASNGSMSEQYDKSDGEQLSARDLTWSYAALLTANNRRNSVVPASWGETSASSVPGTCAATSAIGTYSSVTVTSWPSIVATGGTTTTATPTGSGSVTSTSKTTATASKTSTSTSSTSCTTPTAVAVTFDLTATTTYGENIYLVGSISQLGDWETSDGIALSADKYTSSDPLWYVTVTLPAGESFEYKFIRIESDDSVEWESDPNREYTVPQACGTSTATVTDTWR
Protocol: as §1

α-Glucosidase [2] = biological target: T7, α-Glucosidase (Oryza sativa subsp. japonica, UniProt Q653V7); assay: glycosidase inhibition assay, rice α-glucosidase; details: for inhibition at 100 µM: α-Glucosidase, Rice
T7 construct: purchased Sigma-Aldrich Chemical Co
T7 sequence (Q653V7 34-885): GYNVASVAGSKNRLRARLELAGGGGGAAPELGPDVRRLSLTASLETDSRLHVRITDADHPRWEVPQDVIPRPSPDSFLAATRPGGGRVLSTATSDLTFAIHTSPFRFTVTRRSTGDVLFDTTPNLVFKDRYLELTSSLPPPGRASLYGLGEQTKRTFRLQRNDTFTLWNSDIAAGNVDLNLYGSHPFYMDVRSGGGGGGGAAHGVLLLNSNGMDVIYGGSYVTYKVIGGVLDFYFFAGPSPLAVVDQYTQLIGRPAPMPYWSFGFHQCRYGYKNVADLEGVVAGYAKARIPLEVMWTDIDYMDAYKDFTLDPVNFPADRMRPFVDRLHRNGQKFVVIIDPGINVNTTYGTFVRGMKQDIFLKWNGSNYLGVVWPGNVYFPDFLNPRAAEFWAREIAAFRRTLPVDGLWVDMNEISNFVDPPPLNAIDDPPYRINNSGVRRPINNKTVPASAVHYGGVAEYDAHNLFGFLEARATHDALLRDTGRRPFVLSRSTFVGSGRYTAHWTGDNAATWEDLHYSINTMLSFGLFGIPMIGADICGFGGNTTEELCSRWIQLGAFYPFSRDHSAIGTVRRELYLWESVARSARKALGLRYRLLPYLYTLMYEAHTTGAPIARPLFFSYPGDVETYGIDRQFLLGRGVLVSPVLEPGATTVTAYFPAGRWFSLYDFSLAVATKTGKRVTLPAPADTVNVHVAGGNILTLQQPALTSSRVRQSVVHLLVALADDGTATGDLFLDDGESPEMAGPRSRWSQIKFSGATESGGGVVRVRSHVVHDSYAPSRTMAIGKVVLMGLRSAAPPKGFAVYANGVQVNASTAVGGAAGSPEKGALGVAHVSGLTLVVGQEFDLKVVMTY
Protocol: as §1

α,α-Trehalase = biological target: T8, α,α-Trehalase (Sus scrofa, UniProt I3LIR5); assay: glycosidase inhibition assay, porcine kidney α,α-trehalase
T8 sequence (I3LIR5 24-556): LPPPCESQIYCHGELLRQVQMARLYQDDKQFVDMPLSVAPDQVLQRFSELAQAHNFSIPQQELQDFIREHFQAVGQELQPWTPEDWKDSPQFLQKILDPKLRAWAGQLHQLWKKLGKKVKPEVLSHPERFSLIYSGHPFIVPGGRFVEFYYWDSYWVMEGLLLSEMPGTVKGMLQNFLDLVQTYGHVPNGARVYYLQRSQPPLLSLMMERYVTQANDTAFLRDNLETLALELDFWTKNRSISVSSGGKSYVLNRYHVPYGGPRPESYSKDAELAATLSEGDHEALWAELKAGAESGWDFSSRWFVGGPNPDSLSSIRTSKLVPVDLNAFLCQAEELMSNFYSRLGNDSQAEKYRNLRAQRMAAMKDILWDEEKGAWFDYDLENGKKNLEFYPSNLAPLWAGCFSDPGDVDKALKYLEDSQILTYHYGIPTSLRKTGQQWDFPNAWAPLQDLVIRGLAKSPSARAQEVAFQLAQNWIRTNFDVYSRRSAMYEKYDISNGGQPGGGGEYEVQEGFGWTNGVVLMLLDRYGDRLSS
Protocol: as §1

T1 sequence (P53341 whole entry): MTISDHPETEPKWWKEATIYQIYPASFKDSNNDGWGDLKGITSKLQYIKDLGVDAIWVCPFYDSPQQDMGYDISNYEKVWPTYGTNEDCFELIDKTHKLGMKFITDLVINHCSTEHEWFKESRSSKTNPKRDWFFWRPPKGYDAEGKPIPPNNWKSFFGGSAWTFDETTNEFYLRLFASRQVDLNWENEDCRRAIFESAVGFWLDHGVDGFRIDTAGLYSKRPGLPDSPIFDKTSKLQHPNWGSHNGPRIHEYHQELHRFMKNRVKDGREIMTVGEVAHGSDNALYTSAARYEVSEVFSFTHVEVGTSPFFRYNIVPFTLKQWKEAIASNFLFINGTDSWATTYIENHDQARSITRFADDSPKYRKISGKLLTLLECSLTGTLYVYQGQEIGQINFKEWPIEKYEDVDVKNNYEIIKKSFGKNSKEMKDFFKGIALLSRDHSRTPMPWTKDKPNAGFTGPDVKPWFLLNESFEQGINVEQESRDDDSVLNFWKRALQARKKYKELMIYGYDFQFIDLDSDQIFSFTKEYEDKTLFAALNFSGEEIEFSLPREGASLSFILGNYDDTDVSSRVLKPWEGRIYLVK

SMILES	inhibition at 100 µM (α-Glucosidase [1])	IC50 (α-Glucosidase [1])	inhibition at 100 µM (α-Galactosidase)	IC50 (α-Galactosidase)	IC50 (β-Glucosidase)	inhibition % (β-Glucosidase)	inhibition at 100 µM (α-L-Rhamnosidase)	IC50 (α-L-Fucosidase)	inhibition at 100 µM (α-L-Fucosidase)	IC50 (β-Mannosidase)	inhibition % (β-Mannosidase)	IC50 (Rat intestinal maltase)	IC50 (β-Galactosidase)	IC50 (β-Glucuronidase)	IC50 (Amyloglucosidase)	inhibition at 100 µM (Amyloglucosidase)	IC50 (α-Glucosidase [2])	inhibition at 100 µM (α,α-Trehalase)	inhibition % (Rat intestinal maltase)	inhibition at 100 µM (α-Glucosidase [2])	also measured
OCCCC(O)CCCCCCCCCC1NC(CO)C(O)C1O [2,10-di-epi-3, (2S,3R,4R,5R)-2-hydroxymethyl-3,4-dihydroxyl-5-((10S)-10,13-(dihydroxyl)dec-1-yl) pyrrolidine]	3.2%	> 100 µM	0%	> 100 µM	> 100 µM	10.9%	4.7%	> 100 µM	10.8%	> 100 µM	0%	1.4 µM	13 µM	80 µM	> 100 µM	6.8%	12 µM	0%	–	–	–
OCCC[C@@H](O)CCCCCCCCC[C@H]1N[C@@H](CO)[C@@H](O)[C@@H]1O [2-epi-3, (2S,3R,4R,5R)-2-hydroxymethyl-3,4-dihydroxyl-5-((10R)-10,13-(dihydroxyl)dec-1-yl) pyrrolidine]	1.6%	> 100 µM	0%	> 100 µM	> 100 µM	8.6%	3.3%	> 100 µM	4.3%	> 100 µM	0%	> 100 µM	7.4 µM	73 µM	> 100 µM	3.8%	> 100 µM	0%	16.8%	5.6%	–
OCCC[C@H](O)CCCCCCCCC[C@H]1N[C@H](CO)[C@@H](O)[C@@H]1O [10’-epi-3, (2R,3R,4R,5R)-2-hydroxymethyl-3,4-dihydroxyl-5-((10S)-10,13-(dihydroxyl)dec-1-yl) pyrrolidine]	4.6%	> 100 µM	0%	> 100 µM	> 100 µM	29.1%	4.7%	> 100 µM	0%	> 100 µM	0%	> 100 µM	0.2 µM	20 µM	> 100 µM	36.5%	> 100 µM	0%	26.4%	0%	–
OCCC[C@@H](O)CCCCCCCCC[C@H]1N[C@H](CO)[C@@H](O)[C@@H]1O [compound 3, (2R,3R,4R,5R)-2-hydroxymethyl-3,4-dihydroxyl-5-((10R)-10,13-(dihydroxyl)dec-1-yl)pyrrolidine]	2.6%	> 100 µM	0%	> 100 µM	> 100 µM	10.0%	6.1%	> 100 µM	0%	> 100 µM	1.7%	> 100 µM	2.3 µM	86 µM	> 100 µM	3.8%	> 100 µM	0%	0%	0%	–
OCCC[C@@H](O)CCCCCCCCC[C@@H]1N[C@@H](CO)[C@@H](O)[C@H]1O [ent-3,10-di-epi-3]	6.6%	> 100 µM	0%	> 100 µM	> 100 µM	7.3%	11.4%	98 µM	–	> 100 µM	2.3%	84 µM	31 µM	42 µM	> 100 µM	0%	> 100 µM	3.8%	–	9.5%	–
OCCC[C@H](O)CCCCCCCCC[C@@H]1N[C@@H](CO)[C@H](O)[C@H]1O [ent-3, (2S,3S,4S,5S)-2-hydroxymethyl-3,4-dihydroxyl-5-((10S)-10,13-(dihydroxyl)dec-1-yl) pyrrolidine]	1.9%	> 100 µM	0.3%	> 100 µM	> 100 µM	9.6%	13.3%	> 100 µM	0%	> 100 µM	0%	0.29 µM	50 µM	> 100 µM	> 100 µM	0%	1.2 µM	2.1%	–	–	inhibition at 100 µM (β-Glucuronidase): 44.3%
OCCC[C@H](O)CCCCCCCCC[C@@H]1N[C@@H](CO)[C@@H](O)[C@H]1O [ent-3-epi-3, (2S,3R,4S,5S)-2-hydroxymethyl-3,4-dihydroxyl-5-((10S)-10,13-(dihydroxyl)dec-1-yl) pyrrolidine]	0%	> 100 µM	0%	> 100 µM	> 100 µM	4.6%	15.2%	50 µM	–	> 100 µM	0%	42 µM	41 µM	> 100 µM	> 100 µM	0%	> 100 µM	0%	–	23%	inhibition at 100 µM (β-Glucuronidase): 28.7%
OCCC[C@@H](O)CCCCCCCCC[C@@H]1N[C@@H](CO)[C@H](O)[C@H]1O [ent-10’-epi-3]	1.9%	> 100 µM	12.2%	> 100 µM	> 100 µM	8.0%	1.8%	> 100 µM	6.1%	> 100 µM	2.0%	–	9 µM	> 100 µM	> 100 µM	6.1%	1.3 µM	0%	–	–	inhibition at 100 µM (β-Glucuronidase): 36.2%
